In patent US10143198B2, “Use of propyl propane thiosulfinate and propyl propane thiosulfonate for the prevention and reduction of parasites in aquatic animals” (Investfood, LLC, priority 2013, dated 2018):

How the values were obtained:
[1] = system: Icthyobodo necator; test: oral treatment of Ichthyobodosis in rainbow trout, PTSO administered into feed; assay type: in vivo; conditions: for % infestation High / % infestation Low / % infestation minimal / % infestation Moderate / % infestation zero: 24 hours after end of assay; for % infestation High: High = more than 50 individuals per microscope field; for % infestation Low: Low = more than 1 individual, less than 10 per field; for % infestation minimal: Minimal = only 1 individual detected; for % infestation Moderate: Moderate = 10 to 50 per field; for % infestation zero: Zero = not detected
Experimental: In this example, a study of oral treatments of Ichthyobodosis in rainbow trout with different concentrations of Propyl propane thiosulphonate (PTSO) administered into feed was conducted.
Rainbow trout Oncornynchus mykiss were obtained from a local fish farm and acclimatized for at least 10 days before assay in 100 l tanks with aeration in closed systems of water (15±2° C., pH 7-7.5). The natural light-dark cycle was simulated (12 h light: 12 h dark). Fish were fed twice per day with a commercial feed (EFICO, Biomar, Spain). Parasite-free fish were experimentally infested by holding the parasite-free fish 25 days in a 100 l tank that also contained fish showing high-intensity infestation (20 uninfected fish to 10 infected fish).
Fish were anaesthetized by immersion in bath with 100 ppm of Tricaine methanesulfonate until respiration became weak. A mucus sample was then taken by gently scraping the body surface after examination of a sample area of 24×32 mm. The sample was mixed with 30 μl of distilled water on a slide, cover-slipped and examined to optic microscopy (400×).
Each treatment was assayed in 20 infected fish maintained in 100 L tanks with aeration in closed systems of water. The fish received feed containing three different treatments. The first group received a diet with 100 ppm of Propyl propane thiosulphonate (PTSO), the second received a diet supplemented with 300 ppm of PTSO, and the third received a diet with 300 ppm of metronidazole. All treatments were applied during a 10 day period. In all cases, feed was supplied at 2% of total body weight per day. Simultaneously, a positive control assay (also on 20 infected fish treated identically, but without any PTSO) and negative control assay (with 20 uninfected animals) were performed. Tanks conditions were identical to those during the acclimatization period.
Throughout the assay period the fish were monitored regularly to ensure that the fish were eating the food, and to check for signs of toxicity.
Of note, infestation intensity was based on a 5-point scale, as follows: Zero equals Ichthyobodo necator not being detected in the sample; Minimal equals only 1 individual of I. necator being detected in the sample; Low equals more than 1 individual of parasite being detected in the sample, the average number per microscope field being less than 10; Moderate equals an average number of individuals per microscope field of 10 to 50; High equals an average number of individuals per microscope field of more than 50.

[2] = system: L3 larvae of Anisakis type I; conditions: 200, 300 and 500 ppm, in vitro, 36° C.
From the text: (§1) The objective of example 3 was to examine the activity of propyl propane thiosulphonate (PTSO) and propyl propane thiosulfinate (PTS) against L3 larvae of type I Anisakis and Hysterotylacium aduncum to explore the possible use of these compounds for prophylaxis treatments.
(§2) L3 of Anisakis type I and Hysterotylacium aduncum were collected by dissecting the fish Micromesistius poutassou (blue whiting) and Trachurus trachurus (mackerel) fished in the Cantabric sea, and selecting only larvae with a length greater than (>) 2.0 cm in the case of Anisakis, and greater than 0.8 cm for Hysterotylacium.
(§3) Larvae were axenised in antibiotic solution (Iglesias et al., 1997), introduced into polystyrene plate wells with 2 ml of sterile solution of 0.9% NaCl and the different concentrations of PTS alone, PTSO alone, and both PTS and PTSO (75, 200, 300 and 500 ppm) and then incubated at 36° C. in a 5% CO2 atmosphere. As controls, larvae were assayed without test compound under identical experimental conditions, and using only the solvent DMSO 1% (Dimethyl sulfoxide). Larvae were examined under stereoscopic microscope at 4, 8, 24, and 48 hours to test the biocidal effect of the compounds. Larvae with no mobility at all were considered dead. Each dilution was tested three times on larvae from fish captured on different days.

[3] = system: L3 larvae of Hysterotylacium aduncum; conditions: 75 ppm, in vitro, 36° C.
From the text: as §1, §2, §3

| Structure (SMILES) | % infestation High ([1]; 100 ppm in feed for 10 days) [%] | % infestation Low ([1]; 100 ppm in feed for 10 days) [%] | % infestation minimal ([1]; 100 ppm in feed for 10 days) [%] | % infestation Moderate ([1]; 100 ppm in feed for 10 days) [%] | % infestation zero ([1]; 100 ppm in feed for 10 days) [%] | % infestation High ([1]; 300 ppm in feed for 10 days) [%] | % infestation Low ([1]; 300 ppm in feed for 10 days) [%] | % infestation minimal ([1]; 300 ppm in feed for 10 days) [%] | % infestation Moderate ([1]; 300 ppm in feed for 10 days) [%] | % infestation zero ([1]; 300 ppm in feed for 10 days) [%] | antiparasitic activity, infestation intensity ([1]; oral in feed) | anti-parasitic activity (mortality) [2] | anti-parasitic activity (mortality) [3] |
| --- | --- | --- | --- | --- | --- | --- | --- | --- | --- | --- | --- | --- | --- |
| CCCSS(=O)(=O)CCC [PTSO, propyl propane thiosulfonate] | 35 | 18 | 12 | 30 | 5 | 25 | 8 | 5 | 7 | 55 | significant reduction of infestation intensity | significant anti-parasitic activity | significant anti-parasitic activity |
| CCCS[S+]([O-])CCC (centres unmarked) [PTS, propyl propane thiosulfinate] | – | – | – | – | – | – | – | – | – | – | – | significant anti-parasitic activity | significant anti-parasitic activity |
| Cc1ncc([N+](=O)[O-])n1CCO [Metronidazole, metronidazole, reference compound] | – | – | – | – | – | 15 | 7 | 12 | 20 | 46 | – | – | – |
